Reference: patent US9409905B2, “Antibacterial compounds and methods for use” (PTC THERAPEUTICS, INC., priority 2011, dated 2016)
≈ marks a conversion by molar mass, not a printed value.

Columns and labels:
[1] = tested on: Neisseria meningitidis (N. meningitidis) 13090; experiment: Antibacterial activity, MIC (Table 8); assay type: cell-based
Source text: (§1) The antibacterial activity from a microbroth dilution method may be presented as the minimum inhibitory concentration (MIC in μg/mL). The MIC value is the lowest concentration of drug which prevents macroscopically visible growth under test conditions.
(§2) Antibacterial activity of test compounds against the Gram-negative bacteria Haemophilus influenzae (H. influenzae) 49247 is shown in Table 6, Moraxella catarrhalis (M. catarrhalis) 25238 is shown in Table 7 and Neisseria meningitidis (N. meningitidis) 13090 is shown in Table 8.

E. coli ELZ4251 = experiment: Antibacterial activity, MIC, multi-drug resistant clinical isolate (Table 3); assay type: cell-based; details: Escherichia coli
Summary of the method: (§3)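 Compounds were serially diluted in broth microdilution format and growth was scored visually; the MIC is the lowest concentration at which no macroscopically visible growth occurred, expressed in μg/mL.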

E. coli ELZ4000 = experiment: as above; assay type: cell-based; details: Escherichia coli, ELZ4000, read-out: MIC ELZ4000
Summary of the method: as §3

A. baumannii MXX2240 = experiment: Antibacterial activity, MIC, resistant strain (Table 4); assay type: cell-based; details: Acinetobacter baumannii, MXX2240; resistant A. baumannii MMX2240, multi-drug resistant clinical isolate; read-out: MIC, MMX2240
Summary of the method: (§4)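 Values are MICs in μg/mL, read as the lowest compound concentration at which no growth is visible by eye. They come from a microbroth dilution method.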

K. pneumoniae MXX1232 = experiment: as above; assay type: cell-based; details: Klebsiella pneumoniae, MXX1232; resistant K. pneumoniae MMX1232, multi-drug resistant clinical isolate; read-out: MIC, MMX1232
Summary of the method: as §4

E. coli LZ3111 = experiment: Antibacterial activity, MIC, quinolone resistant strain (Table 2); assay type: cell-based; details: Escherichia coli, LZ3111, read-out: MIC LZ3111
Summary of the method: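 MIC values (μg/mL) came from a microbroth dilution assay, scored as the lowest drug concentration at which no growth was visible by eye.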

[2] = tested on: Pseudomonas aeruginosa (P. aeruginosa) 27853; experiment: Antibacterial activity, MIC (Table 5); assay type: cell-based; details: P. aeruginosa 27853, read-out: MIC, 27853
Summary of the method: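 Values are MICs in μg/mL, read as the lowest concentration at which no growth is visible by eye. They were determined by a microbroth dilution method.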

E. coli 25922 = experiment: Antibacterial activity, microbroth dilution MIC (Table 1); assay type: cell-based, Escherichia coli; details: Escherichia coli; microbroth dilution; control Gram-negative E. coli 25922 strain; read-out: MIC, 25922
Summary of the method: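 Microbroth dilution was used. MIC, in μg/mL, is the lowest drug concentration preventing macroscopically visible growth under the test conditions.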

[3] = tested on: Acinetobacter baumannii (A. baumannii) BAA747; experiment: Antibacterial activity, MIC (Table 4); assay type: cell-based; details: A. baumannii BAA747, read-out: MIC, BAA747
Summary of the method: as §4

[4] = tested on: Staphylococcus aureus (S. aureus) 29213; experiment: Antibacterial activity, microbroth dilution MIC (Table 1); assay type: cell-based; details: microbroth dilution, Gram-positive S. aureus 29213, read-out: MIC, 29213
Summary of the method: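 In a microbroth dilution test, the minimum inhibitory concentration was defined as the lowest compound level preventing growth seen by eye, and was given in μg/mL.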

[5] = tested on: Escherichia coli (E. coli) BAS849; experiment: as above; assay type: cell-based; details: microbroth dilution, super sensitive Gram-negative E. coli BAS849, read-out: MIC, BAS849
Summary of the method: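 Growth inhibition by microbroth dilution. MIC = lowest μg/mL with no visible growth. Strain 25922 is the control Gram-negative; BAS849 is hypersensitive.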

[6] = tested on: Haemophilus influenzae (H. influenzae) 49247; experiment: Antibacterial activity, MIC (Table 6); assay type: cell-based
Source text: as §1, §2

[7] = tested on: Klebsiella pneumoniae (K. pneumoniae) 35657; experiment: Antibacterial activity, MIC (Table 4); assay type: cell-based; details: K. pneumoniae 35657, read-out: MIC, 35657
Summary of the method: as §4

[8] = tested on: Moraxella catarrhalis (M. catarrhalis) 25238; experiment: Antibacterial activity, MIC (Table 7); assay type: cell-based
Source text: as §1, §2

| SMILES | MIC [1] [µg/mL] | MIC (E. coli ELZ4251) [µg/mL] | MIC (E. coli ELZ4000) [µg/mL] | MIC (A. baumannii MXX2240) [µg/mL] | MIC (K. pneumoniae MXX1232) [µg/mL] | MIC (E. coli LZ3111) [µg/mL] | MIC [2] [µg/mL] | MIC (E. coli 25922) [µg/mL] | MIC [3] [µg/mL] | MIC [4] [µg/mL] | MIC [5] [µg/mL] | MIC [6] [µg/mL] | MIC [7] [µg/mL] | MIC [8] [µg/mL] |
| --- | --- | --- | --- | --- | --- | --- | --- | --- | --- | --- | --- | --- | --- | --- |
| CCc1c(-c2ccc3c(c2)cc(CO)n3C)[nH]c(=O)c(C(=O)O)c1O [Cpd 40, 5-ethyl-4-hydroxy-6-(2-(hydroxymethyl)-1-methyl-1H-indol-5-yl)-2-oxo-1,2-dihydropyridine-3-carboxylic acid] | < 1 | 3.5 to 12.5 (≈ 10.2 to 36.5 µM) | 12.5 to 150 (≈ 36.5 to 438 µM) | 3.5 to 12.5 (≈ 10.2 to 36.5 µM) | 12.5 to 150 (≈ 36.5 to 438 µM) | 3.5 to 12.5 (≈ 10.2 to 36.5 µM) | 3.5 to 12.5 (≈ 10.2 to 36.5 µM) | 1 to 3.5 (≈ 2.92 to 10.2 µM) | 1 to 3.5 (≈ 2.92 to 10.2 µM) | 1 to 3.5 (≈ 2.92 to 10.2 µM) | < 1 | < 1 | – | – |
| CCc1c(-c2ccc3c(c2)cc(CN2CCC(C)CC2)n3C)[nH]c(=O)c(C(=O)O)c1O [Cpd 247, 5-ethyl-4-hydroxy-6-(1-methyl-2-((4-methylpiperidin-1-yl)methyl)-1H-indol-5-yl)-2-oxo-1,2-dihydropyridine-3-carboxylic acid] | < 1 | 12.5 to 150 (≈ 29.5 to 354 µM) | 12.5 to 150 (≈ 29.5 to 354 µM) | 1 to 3.5 (≈ 2.36 to 8.26 µM) | 12.5 to 150 (≈ 29.5 to 354 µM) | 3.5 to 12.5 (≈ 8.26 to 29.5 µM) | 12.5 to 150 (≈ 29.5 to 354 µM) | < 1 | 1 to 3.5 (≈ 2.36 to 8.26 µM) | 3.5 to 12.5 (≈ 8.26 to 29.5 µM) | < 1 | 1 to 3.5 (≈ 2.36 to 8.26 µM) | 1 to 3.5 (≈ 2.36 to 8.26 µM) | < 1 |
| CCc1cc(C(=O)O)c(=O)[nH]c1-c1ccc2c(c1)CCCN2C [Cpd 1, 5-ethyl-6-(1-methyl-1,2,3,4-tetrahydroquinolin-6-yl)-2-oxo-1,2-dihydropyridine-3-carboxylic acid] | < 1 | 12.5 to 150 (≈ 40 to 480 µM) | 12.5 to 150 (≈ 40 to 480 µM) | – | – | 12.5 to 150 (≈ 40 to 480 µM) | 12.5 to 150 (≈ 40 to 480 µM) | 1 to 3.5 (≈ 3.2 to 11.2 µM) | – | 12.5 to 150 (≈ 40 to 480 µM) | < 1 | < 1 | – | – |
| CCc1c(-c2ccc3c(c2)cc(CN(C)CC2CC2)n3C)[nH]c(=O)c(C(=O)O)c1O.Cl [Cpd 210, 6-(2-(((cyclopropylmethyl)(methyl)amino)methyl)-1-methyl-1H-indol-5-yl)-5-ethyl-4-hydroxy-2-oxo-1,2-dihydropyridine-3-carboxylic acid hydrochloride] | < 1 | 3.5 to 12.5 | 12.5 to 150 | 12.5 to 150 | 12.5 to 150 | 3.5 to 12.5 | 12.5 to 150 | < 1 | 1 to 3.5 | 3.5 to 12.5 | < 1 | 1 to 3.5 | 3.5 to 12.5 | < 1 |
| CCc1c(-c2ccc3c(c2)cc(CN2CCC(C(C)(C)N)C2)n3C)[nH]c(=O)c(C(=O)O)c1O (centres unmarked) [Cpd 185, 6-(2-((3-(2-aminopropan-2-yl)pyrrolidin-1-yl)methyl)-1-methyl-1H-indol-5-yl)-5-ethyl-4-hydroxy-2-oxo-1,2-dihydropyridine-3-carboxylic acid] | < 1 | 12.5 to 150 (≈ 27.6 to 331 µM) | 12.5 to 150 (≈ 27.6 to 331 µM) | 12.5 to 150 (≈ 27.6 to 331 µM) | 12.5 to 150 (≈ 27.6 to 331 µM) | 1 to 3.5 (≈ 2.21 to 7.73 µM) | 3.5 to 12.5 (≈ 7.73 to 27.6 µM) | 1 to 3.5 (≈ 2.21 to 7.73 µM) | 12.5 to 150 (≈ 27.6 to 331 µM) | 12.5 to 150 (≈ 27.6 to 331 µM) | < 1 | 1 to 3.5 (≈ 2.21 to 7.73 µM) | 1 to 3.5 (≈ 2.21 to 7.73 µM) | 1 to 3.5 (≈ 2.21 to 7.73 µM) |
| CCc1c(-c2ccc3c(c2)CCN3C)[nH]c(=O)c(C(=O)O)c1O [Cpd 6, 5-ethyl-4-hydroxy-6-(1-methylindolin-5-yl)-2-oxo-1,2-dihydropyridine-3-carboxylic acid] | < 1 | 12.5 to 150 (≈ 39.8 to 477 µM) | 12.5 to 150 (≈ 39.8 to 477 µM) | 1 to 3.5 (≈ 3.18 to 11.1 µM) | 12.5 to 150 (≈ 39.8 to 477 µM) | 12.5 to 150 (≈ 39.8 to 477 µM) | 12.5 to 150 (≈ 39.8 to 477 µM) | 3.5 to 12.5 (≈ 11.1 to 39.8 µM) | 1 to 3.5 (≈ 3.18 to 11.1 µM) | 3.5 to 12.5 (≈ 11.1 to 39.8 µM) | < 1 | < 1 | 12.5 to 150 (≈ 39.8 to 477 µM) | – |
| CCc1cc(C(=O)O)c(=O)[nH]c1-c1ccc2c(c1)CCN2C [Cpd 5, 5-ethyl-6-(1-methylindolin-5-yl)-2-oxo-1,2-dihydropyridine-3-carboxylic acid] | < 1 | 12.5 to 150 (≈ 41.9 to 503 µM) | 12.5 to 150 (≈ 41.9 to 503 µM) | 12.5 to 150 (≈ 41.9 to 503 µM) | 12.5 to 150 (≈ 41.9 to 503 µM) | 12.5 to 150 (≈ 41.9 to 503 µM) | 12.5 to 150 (≈ 41.9 to 503 µM) | 3.5 to 12.5 (≈ 11.7 to 41.9 µM) | 1 to 3.5 (≈ 3.35 to 11.7 µM) | 12.5 to 150 (≈ 41.9 to 503 µM) | < 1 | < 1 | 3.5 to 12.5 (≈ 11.7 to 41.9 µM) | – |
